Measurements reported in ChEMBL document CHEMBL1201862, “PubChem BioAssay data set” (2004).
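Method: 48-hour compound exposure of cells in 96-well plates, five concentrations, linear interpolation of endpoints. GI50 marks 50% less growth.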 Activity calls are given as the source filed them. Rule as the data show it: active = GI50 up to about 1.1 µM and inactive = higher.

How the values were obtained:
Test in all cases: DTP human tumour cell line panel, 48 h
[1] = system: LXFL 529
[2] = system: DMS-114
[3] = system: M19-MEL
[4] = system: SNB-78
[5] = system: KM-20L2
[6] = system: DMS-273
[7] = system: HOP-18
[8] = system: RXF 631
[9] = system: XF498

Measured: GI50

CN/N=C(/Cc1occc(=O)c1O)C(=O)Nc1ccc(C)c(C)c1
inactive: [1] > 100 µM | [2] > 100 µM | [3] > 100 µM | [4] 60.1 µM | [5] > 100 µM

Cc1ccc(Nc2cccc3c2C(=O)c2cccc(Nc4ccc(C)cc4S(=O)(=O)O)c2C3=O)c(S(=O)(=O)O)c1
inactive: [6] > 100 µM | [1] > 100 µM | [2] > 100 µM | [3] > 100 µM | [7] > 100 µM | [4] > 100 µM | [5] > 100 µM | [8] > 100 µM

O=C(CC(=O)c1ccccc1)c1ccccc1.O=C(CC(=O)c1ccccc1)c1ccccc1.O=C(CC(=O)c1ccccc1)c1ccccc1.[SiH4]
inactive: [9] 3.87 µM | [1] 3.39 µM | [2] 2.3 µM | [3] 3.31 µM | [7] 6.71 µM | [5] 4.18 µM

CC1C=CC(O)[C@]2(CO)CC3(CCC12)OCCO3 (stereo not given in full)
inactive: [9] > 100 µM | [6] > 100 µM | [1] > 100 µM | [2] > 100 µM | [3] > 100 µM | [4] > 100 µM | [5] > 100 µM | [8] > 100 µM

Cc1ccccc1C1OC(=O)c2ccc3ccccc3c21 (stereo not given)
inactive: [9] 2.31 µM | [6] 3.5 µM | [1] 3.38 µM | [2] 4.67 µM | [3] 3.27 µM | [7] 7.64 µM | [4] 6.5 µM | [5] 4.16 µM
active: [8] 0.607 µM

Brc1cc2c(cc1Br)CN(c1ccccc1)C2
inactive: [9] > 100 µM | [6] > 100 µM | [1] > 100 µM | [2] > 100 µM | [3] > 100 µM | [4] > 100 µM | [5] > 100 µM

Cc1cc(C)c2c(c1)N[S@@](=O)S2
inactive: [9] 22.6 µM | [6] 17.2 µM | [1] 13.2 µM | [2] 18.7 µM | [3] 21.7 µM | [7] 23.6 µM | [4] 26.1 µM | [5] 51.3 µM

COC(=O)Cc1nc2ccccc2o1
inactive: [9] 59 µM | [6] 36.4 µM | [1] 49.3 µM | [2] 36.1 µM | [3] 30.5 µM | [7] > 100 µM | [4] > 100 µM | [5] 20.5 µM | [8] > 100 µM

COc1ccc(-c2oc3cc(O)c(OC)c(O)c3c(=O)c2OC2OC(CO)C(O)C(O)C2O)cc1 (stereo not given)
inactive: [6] > 100 µM | [1] > 100 µM | [2] > 100 µM | [3] > 100 µM | [7] 50.4 µM | [4] > 100 µM | [5] > 100 µM

CC1=C(C)CC2(CCCCC2=O)[S+]([O-])C1 (stereo not given)
inactive: [9] > 100 µM | [6] > 100 µM | [1] > 100 µM | [2] > 100 µM | [3] > 100 µM | [7] > 100 µM | [4] > 100 µM | [5] > 100 µM

C/C(CC(=O)Nc1ccc(NC(=O)/C(C)=N/NS(=O)(=O)c2ccc(C)cc2)cc1)=N\NS(=O)(=O)c1ccc(C)cc1
inactive: [1] > 100 µM | [2] > 100 µM | [3] > 100 µM | [4] > 100 µM | [5] > 100 µM

N=C(N)NS(=O)(=O)c1ccc(NC(=O)c2cccc3c(Nc4ccc(S(N)(=O)=O)cc4)c4ccccc4nc23)cc1
inactive: [9] > 100 µM | [6] > 100 µM | [1] > 100 µM | [2] > 100 µM | [3] > 100 µM | [7] > 100 µM | [4] > 100 µM | [5] > 100 µM

C[n+]1c2ccccc2c(NC(CCC(N)=O)C(=O)O)c2ccccc21 (stereo not given)
inactive: [9] > 100 µM | [6] > 100 µM | [1] > 100 µM | [2] > 100 µM | [3] > 100 µM | [7] > 100 µM | [4] > 100 µM | [5] > 100 µM | [8] > 100 µM

COc1cc(/C=C(\C#N)c2ccccc2)cc(OC)c1
inactive: [9] 48 µM | [1] 43.4 µM | [2] 27.5 µM | [3] 50 µM | [4] 82.4 µM | [5] 41.1 µM

NC(CNc1ccc(O)cc1)C(=O)O (stereo not given)
inactive: [9] 13.5 µM | [6] > 100 µM | [1] > 100 µM | [2] > 100 µM | [3] 28.8 µM | [7] > 100 µM | [4] > 100 µM | [5] 63 µM | [8] 92.3 µM

CS/C(c1ccccc1)=[N+](/C)[O-]
inactive: [9] > 100 µM | [1] > 100 µM | [3] > 100 µM | [7] > 100 µM | [4] > 100 µM | [5] > 100 µM | [8] > 100 µM

CCCCCCCC(=O)OCC(C[As](=O)(O)O)OC(=O)CCCCCCC (stereo not given)
inactive: [6] 14.1 µM | [1] 13.4 µM | [2] 16.4 µM | [3] 15.7 µM | [7] 15.8 µM | [4] 18.7 µM | [5] 16.7 µM

CSc1ccc(N2C(=O)C3c4[nH]c5ccccc5c4C4CCC(C(C)(C)C)CC4C3C2=O)cc1 (stereo not given)
inactive: [9] 27.7 µM | [6] 10.6 µM | [1] 18.5 µM | [2] 15.2 µM | [3] 31.9 µM | [7] 22.8 µM | [4] 7.94 µM | [5] 48.4 µM

C[C@H]1CC[P+](C)(c2ccccc2)C1 (stereo not given in full)
inactive: [6] > 100 µM | [1] > 100 µM | [2] > 100 µM | [3] > 100 µM | [7] > 100 µM | [4] > 100 µM | [5] > 100 µM
active: [9] < 0.01 µM

Cc1cc2c(cc1C)[n+]([O-])c(C(=O)C/C(=N/NC(=O)c1ccccc1O)C(=O)Nc1ccccc1C(C)C)c(C)[n+]2[O-]
inactive: [6] 99.5 µM | [1] 63 µM | [2] 98.6 µM | [3] > 100 µM | [7] 89.5 µM | [4] > 100 µM | [5] > 100 µM | [8] > 100 µM

O=C(Nc1c(Cl)cc([N+](=O)[O-])cc1Cl)C(=O)C(C1OC(=O)c2ccccc21)[N+](=O)[O-] (stereo not given)
inactive: [9] > 100 µM | [1] > 100 µM | [2] 92.3 µM | [3] > 100 µM | [4] 41.2 µM | [5] > 100 µM | [8] > 100 µM

CC(=O)OCC1OC(n2c(=O)n(-c3ccccc3)c(=O)c3cc(Br)cc(Br)c32)C(OC(C)=O)C(OC(C)=O)C1OC(C)=O (stereo not given)
inactive: [9] > 100 µM | [6] > 100 µM | [1] > 100 µM | [2] > 100 µM | [3] > 100 µM | [7] > 100 µM | [4] > 100 µM | [5] 8.95 µM | [8] > 100 µM

CCc1nc2c([nH]1)C(=O)c1ccccc1C2=O
inactive: [9] 15.9 µM | [6] 37.1 µM | [2] 21.2 µM | [3] 15.3 µM | [4] 53.7 µM

O=S1OC(c2ccccc2)(c2ccccc2)C(c2ccccc2)(c2ccccc2)O1
inactive: [9] 56.2 µM | [6] > 100 µM | [1] 7.45 µM | [2] 36.8 µM | [3] > 86.7 µM | [7] > 100 µM | [4] > 100 µM | [5] 18 µM | [8] > 100 µM

O=C(Nc1ccccc1Cl)c1ccc([N+](=O)[O-])cc1
inactive: [9] > 100 µM | [6] > 100 µM | [3] > 100 µM | [4] 39.7 µM | [5] > 100 µM

c1ccc(C2OC3(CCC[C@H]4C[C@H]43)O[C@H]2c2ccccc2)cc1 (stereo not given in full)
inactive: [9] 22.7 µM | [6] 49.4 µM | [2] 33.7 µM | [3] 32.2 µM | [4] 58.9 µM | [5] 30.8 µM | [8] 89.3 µM

CCOC(=O)N1C2C=C(C)C(C3C(C)C(=O)N31)N(C(=O)c1ccccc1)O2 (stereo not given)
inactive: [9] > 100 µM | [6] > 100 µM | [1] > 100 µM | [2] > 100 µM | [3] > 100 µM | [7] > 100 µM | [4] > 100 µM | [8] > 100 µM
